PMC7064328 (Environmental Health Perspectives, 2020)
Values joined by “and” are separate entries in the source; they are usually repeats but may differ in a detail not shown here. Equal values may be shown once.

Assays:
Type in all cases: in vivo, mouse (CD-1)
[1] = Internal dosimetry of PFOA and GenX in maternal serum, maternal liver, amniotic fluid and whole embryos (UPLC-MS/MS)
Experimental: Solid tissues were homogenized in RODI water at a ratio of approximately 1:3 tissue mass (milligrams) to liquid volume (microliters). Maternal serum, amniotic fluid, and tissue homogenates ( 25μL ) were spiked with internal standard suspended in 0.1M formic acid in a denaturation step, followed by a subsequent protein crash using ice-cold acetonitrile. Samples were vortex mixed after addition of formic acid and acetonitrile and then centrifuged at 10,000×g for 5 min. Extract supernatants were separated using a Waters ACQUITY UPLC® (Waters Corporation) fitted with a Waters ACQUITY UPLC® BEH C18 Column ( 130Å; 1.7μm; 2.1mm×50mm ). Detection was performed using a Waters Quattro Premier™ XE tandem quadrupole mass spectrometer in negative ionization mode.

maternal liver = experiment: Transmission electron microscopy of dam liver; details: E17.5
Excerpt: Block 2 dam liver portions stored in McDowell and Trump’s fixative ([McDowell and Trump 1976]) were processed using a Leica EM TP processor. Briefly, samples were rinsed with buffer, postfixed in 1% osmium tetroxide in 0.1-M phosphate buffer, rinsed in distilled water, dehydrated, and embedded in Ply/Bed® 812 (Polysciences, Inc.) epoxide resin. Blocks were trimmed, and semithin sections ( ∼0.5μm ) were stained with 1% toluidine blue (Poly-scientific R&D Corp.) O in 1% sodium borate to ascertain areas of interest. Ultrathin sections ( […] ) were cut from areas of interest and placed on 200-mesh copper grids and stained with uranyl acetate and lead citrate, and digital images were captured using an Orius® SC1000 side mount camera (Gatan) attached to a Techani T12 transmission electron microscope (TEM) (FEI Company). In general, peroxisomes were smaller than mitochondria and round with a dark, electron-dense, granular matrix and surrounded by a single membrane. […] Samples were analyzed by R.D.K., Ph.D.

Pregnant CD-1 mice = experiment: Clinical chemistry of dam serum and urine; details: for ALB / ALP / ALT / AST / BUN / Chol / Cre / Glu / HDL / LDL / SDH / TBA / TP / Trig: dam serum; for Ucrea: dam urine
Experimental: Dam livers, kidneys, and placentas were trimmed and embedded by the NIEHS Mouse Embryo Phenotyping Core. Tissues collected at necropsy were fixed in 4% PFA for 72 h and paraffin embedded, and 5-μm sections were prepared and stained with hematoxylin and eosin (H&E). Pathology was evaluated and a pathology review conducted by S.A.E. Diplomate American College of Veterinary Pathologists (DACVP). Pathology reviews were conducted as an informed approach analysis [e.g., nonblinded analysis; see Sills et al. ([2019])]. Select tissue slides were scanned using the AT2 Scanner (Aperio). Images were then captured for publication using the ImageScope software; version 12.3.0.5056 (Aperio). Serum and urine obtained from dams in Block 2 were analyzed using the AU480 clinical chemistry analyzer (Beckman Coulter Inc.). Reagents and calibration standards used to measure alkaline phosphatase (ALP), alanine aminotransferase (ALT), aspartate aminotransferase (AST), blood urea nitrogen (BUN), serum creatinine, urine creatinine, glucose (Glu), total protein (TP), triglyceride (Trig), high-density lipoprotein (HDL), cholesterol (Chol), and albumin (ALB) were purchased from Beckman Coulter Inc. Reagents for sorbitol dehydrogenase (SDH), total bile acid (TBA), and micro-TP were purchased from Sekisui Diagnostics. The reagent used to measure low-density lipoprotein (LDL) was purchased form Diazyme Laboratories.

N.O=C(O)C(F)(OC(F)(F)C(F)(F)C(F)(F)F)C(F)(F)F (centres unmarked) [GenX, ammonium 2,3,3,3-tetrafluoro-2-(heptafluoropropoxy)propanoate]
Serum concentration, pregnant mice ([1]; 2 mg/kg/d): ~33000 ng/mL
Dam serum concentration ([1]; 10 mg/kg/d throughout gestation): ~100 µg/mL
Amniotic fluid concentration ([1]; E11.5, 2 mg/kg/d): 3.6 ± 2.2 µg/mL
Maternal liver concentration ([1]; E11.5, 2 mg/kg/d): 5.45 ± 3.43 µg/g
Maternal serum concentration ([1]; E11.5, 2 mg/kg/d): 33.5 ± 15.7 µg/mL
Whole embryo concentration ([1]; E11.5, 2 mg/kg/d): 0.91 ± 0.22 µg/g and 0.91 ± 0.2 µg/g
GenX accumulation in dam serum higher than accumulation of PFOA ([1]; E11.5, 2 mg/kg/d GenX vs 1 mg/kg/d PFOA): 32%
Amniotic fluid concentration ([1]; E11.5, 10 mg/kg/d): 9.3 ± 2.0 µg/mL
Maternal liver concentration ([1]; E11.5, 10 mg/kg/d): 19.9 ± 4.2 µg/g
Maternal serum concentration ([1]; E11.5, 10 mg/kg/d): 118.1 ± 10.4 µg/mL
Whole embryo concentration ([1]; E11.5, 10 mg/kg/d): 3.21 ± 0.51 µg/g and 3.21 ± 0.5 µg/g
Female embryo concentration ([1]; E17.5, 2 mg/kg/d): 3.39 ± 1.44 µg/g
Male embryo concentration ([1]; E17.5, 2 mg/kg/d): 3.04 ± 1.27 µg/g
Maternal liver concentration ([1]; E17.5, 2 mg/kg/d): 4.56 ± 2.80 µg/g
Maternal serum concentration ([1]; E17.5, 2 mg/kg/d): 22.9 ± 17.1 µg/mL
Whole embryo concentration ([1]; E17.5, 2 mg/kg/d): 3.23 ± 1.28 µg/g
Female embryo concentration ([1]; E17.5, 10 mg/kg/d): 6.89 ± 2.72 µg/g
Male embryo concentration ([1]; E17.5, 10 mg/kg/d): 7.55 ± 3.35 µg/g
Maternal liver concentration ([1]; E17.5, 10 mg/kg/d): 14.2 ± 7.6 µg/g
Maternal serum concentration ([1]; E17.5, 10 mg/kg/d): 58.5 ± 34.5 µg/mL
Whole embryo concentration ([1]; E17.5, 10 mg/kg/d): 7.69 ± 2.92 µg/g
Liver ultrastructure (TEM) (maternal liver; 2 mg/kg/d): abnormal ultrastructure
Liver ultrastructure (TEM) (maternal liver; 10 mg/kg/d): abnormal ultrastructure
Chol higher compared with controls (Pregnant CD-1 mice; E11.5, 2 mg/kg/d): 66%
Dam serum Trig lowered vs controls (Pregnant CD-1 mice; E11.5, 2 mg/kg/d): 43%
HDL higher compared with controls (Pregnant CD-1 mice; E11.5, 2 mg/kg/d): 56%
Dam serum Trig lowered vs controls (Pregnant CD-1 mice; E11.5, 10 mg/kg/d): 61%
Dam serum Trig lower vs controls (Pregnant CD-1 mice; E17.5, 10 mg/kg/d): 74%
LDL lower vs controls (Pregnant CD-1 mice; E17.5, 10 mg/kg/d): 31%
ALB (Pregnant CD-1 mice; E11.5, 2 mg/kg/d): 2.75±0.33 (4) g/dL
ALP (Pregnant CD-1 mice; E11.5, 2 mg/kg/d): 58.4±9.0 (5) U/L
ALT (Pregnant CD-1 mice; E11.5, 2 mg/kg/d): 24.2±13.7 (5) U/L
AST (Pregnant CD-1 mice; E11.5, 2 mg/kg/d): 69.0±22.0 (5) U/L
BUN (Pregnant CD-1 mice; E11.5, 2 mg/kg/d): 18.3±4.6 (4) mg/dL
Chol (Pregnant CD-1 mice; E11.5, 2 mg/kg/d): 93.4±27.8 (5) mg/dL
Cre (Pregnant CD-1 mice; E11.5, 2 mg/kg/d): 0.2±0.04 (4) mg/dL
Glu (Pregnant CD-1 mice; E11.5, 2 mg/kg/d): 249.3±25.8 (4) mg/dL
HDL (Pregnant CD-1 mice; E11.5, 2 mg/kg/d): 50.2±15.7 (5) mg/dL
LDL (Pregnant CD-1 mice; E11.5, 2 mg/kg/d): 15±4.8 (4) mg/dL
SDH (Pregnant CD-1 mice; E11.5, 2 mg/kg/d): 7.0±6.5 (4) U/L
TBA (Pregnant CD-1 mice; E11.5, 2 mg/kg/d): 1.4±0.55 (5) μM/L
TP (Pregnant CD-1 mice; E11.5, 2 mg/kg/d): 4.5±0.48 (4) g/dL
Trig (Pregnant CD-1 mice; E11.5, 2 mg/kg/d): 117.6±33.9 (5) mg/dL
ALB (Pregnant CD-1 mice; E11.5, 10 mg/kg/d): 2.8±0.17 (3) g/dL
ALP (Pregnant CD-1 mice; E11.5, 10 mg/kg/d): 83.0±25.8 (5) U/L
ALT (Pregnant CD-1 mice; E11.5, 10 mg/kg/d): 78.2±62.0 (5) U/L
AST (Pregnant CD-1 mice; E11.5, 10 mg/kg/d): 136.8±138.9 (4) U/L
BUN (Pregnant CD-1 mice; E11.5, 10 mg/kg/d): 13.7±1.5 (3) mg/dL
Chol (Pregnant CD-1 mice; E11.5, 10 mg/kg/d): 77.0±16.4 (4) mg/dL
Cre (Pregnant CD-1 mice; E11.5, 10 mg/kg/d): 0.18±0.02 (3) mg/dL
Glu (Pregnant CD-1 mice; E11.5, 10 mg/kg/d): 226.7±28.9 (3) mg/dL
HDL (Pregnant CD-1 mice; E11.5, 10 mg/kg/d): 43.3±6.1 (4) mg/dL
LDL (Pregnant CD-1 mice; E11.5, 10 mg/kg/d): 12.5±1.9 (4) mg/dL
SDH (Pregnant CD-1 mice; E11.5, 10 mg/kg/d): 8.0±3.65 (4) U/L
TBA (Pregnant CD-1 mice; E11.5, 10 mg/kg/d): 35.3±67.8 (4) μM/L
TP (Pregnant CD-1 mice; E11.5, 10 mg/kg/d): 4.37±0.29 (3) g/dL
Trig (Pregnant CD-1 mice; E11.5, 10 mg/kg/d): 80.3±14.4 (4) mg/dL
ALB (Pregnant CD-1 mice; E17.5, 2 mg/kg/d): 2.32±0.26 (5) g/dL
ALP (Pregnant CD-1 mice; E17.5, 2 mg/kg/d): 55.4±11.8 (5) U/L
ALT (Pregnant CD-1 mice; E17.5, 2 mg/kg/d): 4.4±3.9 (5) U/L
AST (Pregnant CD-1 mice; E17.5, 2 mg/kg/d): 65.6±12.1 (5) U/L
BUN (Pregnant CD-1 mice; E17.5, 2 mg/kg/d): 13.6±1.1 (5) mg/dL
Chol (Pregnant CD-1 mice; E17.5, 2 mg/kg/d): 86.6±17.1 (5) mg/dL
Cre (Pregnant CD-1 mice; E17.5, 2 mg/kg/d): 0.17±0.03 (5) mg/dL
Glu (Pregnant CD-1 mice; E17.5, 2 mg/kg/d): 123.2±13.1 (5) mg/dL
HDL (Pregnant CD-1 mice; E17.5, 2 mg/kg/d): 39.4±8.5 (5) mg/dL
LDL (Pregnant CD-1 mice; E17.5, 2 mg/kg/d): 20.0±3.9 (5) mg/dL
SDH (Pregnant CD-1 mice; E17.5, 2 mg/kg/d): 1.2±2.2 (5) U/L
TBA (Pregnant CD-1 mice; E17.5, 2 mg/kg/d): 4.8±3.0 (5) μM/L
TP (Pregnant CD-1 mice; E17.5, 2 mg/kg/d): 4.1±0.36 (5) g/dL
Trig (Pregnant CD-1 mice; E17.5, 2 mg/kg/d): 257.0±120.3 (5) mg/dL
ALB (Pregnant CD-1 mice; E17.5, 10 mg/kg/d): 2.26±0.3 (5) g/dL
ALP (Pregnant CD-1 mice; E17.5, 10 mg/kg/d): 88.8±13.0 (5) U/L
ALT (Pregnant CD-1 mice; E17.5, 10 mg/kg/d): 9.6±2.1 (5) U/L
AST (Pregnant CD-1 mice; E17.5, 10 mg/kg/d): 113.2±36.6 (5) U/L
BUN (Pregnant CD-1 mice; E17.5, 10 mg/kg/d): 15.2±1.8 (5) mg/dL
Chol (Pregnant CD-1 mice; E17.5, 10 mg/kg/d): 97.4±8.4 (5) mg/dL
Cre (Pregnant CD-1 mice; E17.5, 10 mg/kg/d): 0.15±0.06 (5) mg/dL
Glu (Pregnant CD-1 mice; E17.5, 10 mg/kg/d): 111.6±15.5 (5) mg/dL
HDL (Pregnant CD-1 mice; E17.5, 10 mg/kg/d): 50.0±8.9 (5) mg/dL
LDL (Pregnant CD-1 mice; E17.5, 10 mg/kg/d): 15.2±2.9 (5) mg/dL
SDH (Pregnant CD-1 mice; E17.5, 10 mg/kg/d): 11.4±6.8 (5) U/L
TBA (Pregnant CD-1 mice; E17.5, 10 mg/kg/d): 6.2±4.2 (5) μM/L
TP (Pregnant CD-1 mice; E17.5, 10 mg/kg/d): 3.9±0.52 (5) g/dL
Trig (Pregnant CD-1 mice; E17.5, 10 mg/kg/d): 120.6±31.7 (5) mg/dL
Ucrea (Pregnant CD-1 mice; E11.5, 2 mg/kg/d): 53.2±14.0 (3) mg/dL
Ucrea (Pregnant CD-1 mice; E11.5, 10 mg/kg/d): 82.9±33.2 (5) mg/dL
Ucrea (Pregnant CD-1 mice; E17.5, 2 mg/kg/d): 18.6±5.1 (4) mg/dL
Ucrea (Pregnant CD-1 mice; E17.5, 10 mg/kg/d): 20.2±15.7 (4) mg/dL
